# In ChEMBL document CHEMBL3407349, “The discovery of Polo-like kinase 4 inhibitors: identification of (1R,2S).2-(3-((E).4-(((cis).2,6-dimethylmorpholino)methyl)styryl). 1H.indazol-6-yl)-5'-methoxyspiro[cyclopropane-1,3'-indolin]-2'-one (CFI-400945) as a potent, orally active antitumor agent” (J Med Chem, 2015):
# What was measured:
# [1] = system: A549; test: Antitumor activity against human A549 cells xenografted in CB-17 SCID mouse assessed as tumor growth inhibition at 9.4 mg/kg, po qd administered for 21 days; format: functional; settings: A549, 504 h, read-out: TGI
# [2] = Oral bioavailability in beagle dog at 5 mg/kg; format: ADME, organism-based, Canis lupus familiaris; settings: in vivo
# [3] = AUC(infinity) in Sprague-Dawley rat at 1 mg/kg, iv; format: ADME, organism-based; parameters: time infinity, dose 1 mg/kg, route intravenous; settings: plasma
# [4] = Growth inhibition of human SKBR3 cells after 5 days by SRB assay; format: functional; settings: SK-BR-3, 120 h
# [5] = Half life in beagle dog at 1 mg/kg, iv; format: ADME, organism-based, Canis lupus familiaris; parameters: dose 1 mg/kg, route intravenous; settings: in vivo
# [6] = Growth inhibition of human COLO205 cells after 5 days by SRB assay; format: functional; settings: COLO 205, 120 h
# [7] = system: Mus musculus; test: Toxicity in CB-17 SCID mouse xenografted with human MDA-MB-468 cells assessed as loss in body weight at 3 to 9.4 mg/kg, po qd administered for 21 days relative to control; format: organism-based; parameters: dose 3-9.4 mg/kg, route oral; settings: in vivo, 504 h
# [8] = AUC in athymic CD1 nude mouse at 25 mg/kg, po by LC/MS/MS analysis; format: ADME, organism-based; parameters: dose 25 mg/kg, route oral; settings: plasma
# [9] = AUC(infinity) in Sprague-Dawley rat at 5 mg/kg, po; format: ADME, organism-based; parameters: dose 5 mg/kg, route oral, time infinity; settings: plasma
# [10] = AUC(infinity) in beagle dog at 5 mg/kg, po; format: ADME, organism-based, Canis lupus familiaris; parameters: time infinity, dose 5 mg/kg, route oral; settings: plasma
# [11] = AUC(infinity) in beagle dog at 1 mg/kg, iv; format: ADME, organism-based, Canis lupus familiaris; parameters: time infinity, dose 1 mg/kg, route intravenous; settings: plasma
# [12] = Growth inhibition of human BT20 cells after 5 days by SRB assay; format: functional; settings: BT-20, 120 h
# [13] = system: MDA-MB-468; test: Antitumor activity against human MDA-MB-468 cells xenografted in CB-17 SCID mouse assessed as tumor growth inhibition at 3 mg/kg, po qd administered for 21 days; format: functional; settings: MDA-MB-468, 504 h, read-out: TGI
# [14] = Cmax in athymic CD1 nude mouse at 25 mg/kg, po by LC/MS/MS analysis; format: ADME, organism-based; parameters: dose 25 mg/kg, route oral; settings: in vivo
# [15] = Toxicity in po dosed athymic CD-1 nude mouse xenografted with human HCT116 cells administered qd 1-on/3-off schedule up to day 21; format: organism-based, HCT-116; settings: CD-1 athymic nude, in vivo
# [16] = Antitumor activity against human HCT116 cells xenografted in athymic CD-1 nude mouse assessed as tumor growth inhibition at MTD, po qd administered 1-on/3-off schedule up to day 21; format: functional, HCT-116
# [17] = biological target: Cytochrome P450 2D6 (Homo sapiens, UniProt P10635); test: Inhibition of CYP2D6 (unknown origin) by fluorescence assay; format: ADME
# Cytochrome P450 2D6, sequence (P10635 whole entry): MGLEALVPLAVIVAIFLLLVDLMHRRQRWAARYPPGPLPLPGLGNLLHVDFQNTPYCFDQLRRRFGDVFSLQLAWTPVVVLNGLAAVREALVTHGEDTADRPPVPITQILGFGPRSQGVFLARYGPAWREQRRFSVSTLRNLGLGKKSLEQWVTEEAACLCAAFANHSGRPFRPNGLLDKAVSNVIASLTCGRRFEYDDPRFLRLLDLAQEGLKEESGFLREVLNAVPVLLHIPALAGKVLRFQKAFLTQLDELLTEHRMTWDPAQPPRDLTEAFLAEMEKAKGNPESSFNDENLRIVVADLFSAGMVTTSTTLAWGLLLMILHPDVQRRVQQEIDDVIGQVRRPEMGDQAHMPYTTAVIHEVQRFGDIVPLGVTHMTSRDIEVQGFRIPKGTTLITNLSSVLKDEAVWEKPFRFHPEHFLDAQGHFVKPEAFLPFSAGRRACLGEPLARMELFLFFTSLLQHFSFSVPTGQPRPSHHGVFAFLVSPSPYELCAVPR
# [18] = biological target: T1, Cytochrome P450 1A2 (Homo sapiens, UniProt P05177); test: Inhibition of CYP1A2 (unknown origin) by fluorescence assay; format: ADME
# T1 sequence (P05177 whole entry): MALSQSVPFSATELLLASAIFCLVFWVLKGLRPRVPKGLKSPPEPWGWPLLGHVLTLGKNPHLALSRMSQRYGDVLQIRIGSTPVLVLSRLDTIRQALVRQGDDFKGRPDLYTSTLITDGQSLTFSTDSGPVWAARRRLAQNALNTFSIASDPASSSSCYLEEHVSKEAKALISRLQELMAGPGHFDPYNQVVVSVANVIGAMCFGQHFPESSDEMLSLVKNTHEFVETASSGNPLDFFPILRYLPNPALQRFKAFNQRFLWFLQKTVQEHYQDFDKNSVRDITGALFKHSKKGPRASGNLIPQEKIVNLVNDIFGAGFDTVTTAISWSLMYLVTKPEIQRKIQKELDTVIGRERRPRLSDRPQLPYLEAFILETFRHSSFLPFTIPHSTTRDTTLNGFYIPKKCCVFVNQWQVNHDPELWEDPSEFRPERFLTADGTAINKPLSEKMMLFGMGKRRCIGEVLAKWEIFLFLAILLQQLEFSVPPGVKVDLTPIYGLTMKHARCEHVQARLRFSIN
# [19] = Growth inhibition of human HCT116 cells after 5 days by SRB assay; format: functional; settings: HCT-116, 120 h
# [20] = Antitumor activity against human SW620 cells xenografted in CB-17 SCID mouse assessed as tumor growth inhibition at 3 mg/kg, po qd administered for 21 days; format: functional; settings: SW-620, 504 h, read-out: TGI
# [21] = Growth inhibition of human OVCAR3 cells after 5 days by SRB assay; format: functional; settings: OVCAR-3, 120 h
# [22] = system: A549; test: Antitumor activity against human A549 cells xenografted in CB-17 SCID mouse assessed as tumor growth inhibition at 3 mg/kg, po qd administered for 21 days; format: functional; settings: A549, 504 h, read-out: TGI
# [23] = system: MDA-MB-231; test: Growth inhibition of human MDA-MB-231 cells after 5 days by SRB assay; format: functional; settings: Homo sapiens, MDA-MB-231, 120 h
# [24] = Growth inhibition of human CAL51 cells after 5 days by SRB assay; format: functional; settings: CAL-51, 120 h
# [25] = system: MDA-MB-468; test: Antitumor activity against human MDA-MB-468 cells xenografted in CB-17 SCID mouse assessed as tumor growth inhibition at 9.4 mg/kg, po qd administered for 21 days; format: functional; settings: MDA-MB-468, 504 h, read-out: TGI
# [26] = Antitumor activity against human SW620 cells xenografted in CB-17 SCID mouse assessed as tumor growth inhibition at 9.4 mg/kg, po qd administered for 21 days; format: functional; settings: SW-620, 504 h, read-out: TGI
# [27] = Growth inhibition of human HMEC cells after 5 days by SRB assay; format: cell-based; settings: HMEC cells
# [28] = system: Mus musculus; test: Toxicity in CB-17 SCID mouse xenografted with human MDA-MB-468 cells assessed as mortality at 3 to 9.4 mg/kg, po qd administered for 21 days; format: organism-based; parameters: dose 3-9.4 mg/kg, route oral; settings: in vivo, 504 h
# [29] = Oral bioavailability in Sprague-Dawley rat at 5 mg/kg; format: ADME, organism-based; settings: in vivo
# [30] = system: MCF7; test: Growth inhibition of human MCF7 cells after 5 days by SRB assay; format: functional; settings: Homo sapiens, MCF7, 120 h
# [31] = system: MDA-MB-468; test: Growth inhibition of human MDA-MB-468 cells after 5 days by SRB assay; format: functional; settings: Homo sapiens, MDA-MB-468, 120 h
# [32] = Half life in Sprague-Dawley rat at 1 mg/kg, iv; format: ADME, organism-based; parameters: dose 1 mg/kg, route intravenous; settings: in vivo
# [33] = system: A549; test: Growth inhibition of human A549 cells after 5 days by SRB assay; format: functional; settings: A549, 120 h
# [34] = system: SW-620; test: Growth inhibition of human SW620 cells after 5 days by SRB assay; format: functional; settings: SW-620, 120 h
# [35] = system: HCC1954; test: Growth inhibition of human HCC1954 cells after 5 days by SRB assay; format: functional; settings: Homo sapiens, HCC1954, 120 h
smiles,measurement,setting,value
C[C@@H]1CN(Cc2ccc(/C=C/c3n[nH]c4cc([C@@H]5C[C@@]56C(=O)Nc5ccccc56)ccc34)cc2)C[C@H](C)O1,inhibition in vivo at 9.4 mg/kg,[1],79%
same,bioavailability,[2],49%
same,AUC(0-inf),[3],1230 ng·h/mL
same,GI50,[4],7200 nM
same,half-life,[5],4.5 h
same,GI50,[6],57 nM
same,Activity,[7],> 20%
same,AUC,[8],10000 ng·h/mL
same,AUC(0-inf),[9],2810 ng·h/mL
same,AUC(0-inf),[10],4990 ng·h/mL
same,AUC(0-inf),[11],2050 ng·h/mL
same,GI50,[12],90 nM
same,inhibition in vivo at 3 mg/kg,[13],45%
same,Cmax,[14],3700 ng/mL
same,MTD at 21 days,[15],36 mg/kg
same,TGI,[16],78%
same,inhibition (INH),[17],Not Active
same,inhibition (INH),[18],Not Active
same,GI50,[19],8 nM
same,inhibition in vivo at 3 mg/kg,[20],57%
same,GI50,[21],15 nM
same,inhibition in vivo at 3 mg/kg,[22],44%
same,GI50,[23],6500 nM
same,GI50,[24],91 nM
same,inhibition in vivo at 9.4 mg/kg,[25],90%
same,inhibition in vivo at 9.4 mg/kg,[26],80%
same,GI50 at 120 h,[27],8400 nM
same,Activity,[28],Non-toxic
same,bioavailability,[29],46%
same,GI50,[30],17 nM
same,GI50,[31],10 nM
same,half-life,[32],3.9 h
same,GI50,[33],9 nM
same,GI50,[34],350 nM
same,GI50,[35],8 nM
